Reference: article PMC2788029 (Journal of molecular biology, 2009)
“Also recorded” adds a separate entry of the source. Like-named read-outs stand apart in the source and are kept apart here.

What was measured:
T4 lysozyme L99A/M102Q [1] = target: T1, T4 lysozyme L99A/M102Q (Enterobacteria phage T4, UniProt P00720, C54T/C97A/L99A/M102Q); assay type: binding
T4 lysozyme L99A/M102Q [2] = target: T1, T4 lysozyme L99A/M102Q; assay: biochemical; assay type: binding
T4 lysozyme L99A/M102Q [3] = target: T1, T4 lysozyme L99A/M102Q; conditions: cited from earlier work
[4] = free energy of binding by ITC at 10°C, pH 6.8, prospective set

CC(=O)OCc1ccccc1 [benzyl acetate]
ΔGb,exp (T4 lysozyme L99A/M102Q [1]; [4]): -18.7 ± 0.669 kJ/mol

Cc1ccc(Cl)cc1O [5-chloro-2-methylphenol]
ΔGb,exp (T4 lysozyme L99A/M102Q [1]): -21.1 ± 0.29 kJ/mol

O=[N+]([O-])c1cccs1 [2-nitrothiophene]
ΔGb,exp (T4 lysozyme L99A/M102Q [1]; [4]): -20.3 ± 1.05 kJ/mol

c1cc2c([nH]1)CCCC2 [4,5,6,7-tetrahydroindole]
ΔGb,exp (T4 lysozyme L99A/M102Q [1]; [4]): -19.3 ± 0.38 kJ/mol

CCOc1ccccc1O [2-ethoxyphenol]
ΔGb,exp (T4 lysozyme L99A/M102Q [1]): -16.8 ± 0.13 kJ/mol

CCOC1CCC=CO1 (stereo not drawn) [2-ethoxy-3,4-dihydro-2h-pyran]
binding free energy, estimated (T4 lysozyme L99A/M102Q [2]): -16.2 to -10.8 kJ/mol
ΔGb,exp (binding class) (T4 lysozyme L99A/M102Q [2]): weak

O=Nc1ccccc1 [nitrosobenzene]
binding free energy, estimated (T4 lysozyme L99A/M102Q [2]): -16.2 to -10.8 kJ/mol
ΔGb,exp (binding class) (T4 lysozyme L99A/M102Q [2]): weak
Kd (T4 lysozyme L99A/M102Q [2]; affinity estimated from concentration where significant Tm upshift was observed): ~1000 µM

CCc1ccccc1O [2-ethylphenol]
ΔGb,exp (T4 lysozyme L99A/M102Q [1]): -19.1 ± 0.46 kJ/mol

Oc1ccccc1O [catechol, reference compound]
binding to L99A/M102Q (known) (T4 lysozyme L99A/M102Q [3]; known ligands and non-binders): is a ligand
ΔGb,exp (T4 lysozyme L99A/M102Q [1]): -17.4 ± 0.13 kJ/mol

Oc1ccccc1 [phenol]
ΔGb,exp (T4 lysozyme L99A/M102Q [3]): -21.9 kJ/mol

Cc1ccccc1O [2-methylphenol]
ΔGb,exp (T4 lysozyme L99A/M102Q [1]): -18.6 ± 0.46 kJ/mol

C=Cc1ccncc1 [4-vinylpyridine]
binding to L99A/M102Q (known) (T4 lysozyme L99A/M102Q [3]; known ligands and non-binders): non-binder

Clc1cn[nH]c1 [4-chloro-1h-pyrazole]
binding free energy, estimated (T4 lysozyme L99A/M102Q [2]): -16.2 to -10.8 kJ/mol
ΔGb,exp (binding class) (T4 lysozyme L99A/M102Q [2]): weak

Nc1ccccc1O [2-aminophenol]
binding to L99A/M102Q (known) (T4 lysozyme L99A/M102Q [3]): non-binder; also recorded: does not bind detectably

CCCc1ccccc1O [2-propylphenol]
ΔGb,exp (T4 lysozyme L99A/M102Q [1]): -22.3 ± 0.21 kJ/mol

c1cc2sccc2s1 [thieno[3,2-b]thiophene]
ΔGb,exp (T4 lysozyme L99A/M102Q [1]; [4]): -19.5 ± 0.711 kJ/mol
